Laboratory results taken from article PMC5118688 (Scientific Reports, 2016).
≈ marks a conversion by molar mass, not a printed value. Like-named read-outs stand apart in the source and are kept apart here.

What was measured:
mAb3C9 [1] = experiment: mimotope-based dcELISA (mAb3C9 and M20-GST-BAD/SA-HRP competitor); format: binding, mouse; conditions: for CR (%): M20-GST-BAD, (IC50 of parathion-methyl/IC50 of pesticide) × 100
Protocol: To develop a mimotope-based dcELISA, the biotinylated mimotope fusion protein was firstly assembled with streptavidin-HRP conjugate (SA-HRP) utilized the high affinity of biotin and streptavidin. The assembly process was just mixing a certain amount of biotinylated mimotope fusion protein with SA-HRP and incubating them at 4 °C overnight before use as an HRP-labeled competitor.
An innovative mimotope-based dcELISA was developed and performed as below. […] TMB solution (100 μL/well) was added and incubated for 15 min at 37 °C.
The optimal condition for mimotope-based dcELISA was optimized as chemosynthesized antigen-based dcELISA. The selectivity and sensitivity of the developed mimotope-based dcELISA for the 24 OPs were also determined under the optimum condition.

mAb4D11 = experiment: optimized mAb4D11-based dcELISA
Protocol: (§1) The dcELISA procedure was performed as below. First, the plate (Costar, Corning Inc., New York, USA) was coated with coating antigen (100 μL/well in 1 × PBS) for 1 h at 37 °C. Then, the wells were washed four times with PBST (1 × PBS with 0.05% (v/v) Tween-20) and blocked with 2% skim milk (200 μL/well) for 1 h at 37 °C. After washing four times, 50 μL analyte in MeOH-water solution and 50 μL mAb-HRP in PBS were added. The plate was incubated for 1 h at 37 °C and then washed four times before adding TMB solution (100 μL/well). After incubation for 15 min at 37 °C, 50 μL/well of H2SO4 (2 mol/L) was added to stop the reaction, and the absorbance was recorded at 450 nm using the Model 680 plate reader (Bio-Rad, USA).
(§2) 18 kinds of O,O-dimethyl OPs and 6 kinds of O,O-diethyl OPs were purchased from National Standards of China and used for the selectivity and sensitivity study using the optimized dcELISA procedure. […] The IC50 value and detection limit of each OP were calculated. The CR value, which was used to evaluate the selectivity of the method, was calculated using the following equation:

mAb3C9 [2] = experiment: optimized chemosynthesized antigen-based dcELISA (mAb3C9 and hapten 6-OVA); conditions: for CR (%): Hapten 6-OVA, (IC50 of parathion-methyl/IC50 of pesticide) × 100
Protocol: as §1, §2

[3] = ref Liang et al. 9; cited from earlier work
[4] = ref Hua et al. 11; cited from earlier work
[5] = mAb3C9, coating antigen Hapten 6-OVA

| Structure (SMILES) | CR (%) (mAb3C9 [1]) | LOD (IC10) (mAb3C9 [1]; mAb3C9, M20-GST-BAD) [µg/mL] | IC50 ± SD (mAb3C9 [1]; mAb3C9, competitor M20-GST-BAD) [µg/mL] | CR (%) (mAb4D11; mAb4D11-based dcELISA) | IC50 (mAb4D11; mAb4D11-based dcELISA) [µg/mL] | LOD (mAb4D11; mAb4D11-based dcELISA) [ng/mL] | CR (%) (mAb3C9 [2]) | LOD (IC10) (mAb3C9 [2]; mAb3C9, Hapten 6-OVA) [µg/mL] | IC50 ± SD (mAb3C9 [2]; [5]) [µg/mL] | IC50 [3] [µg/mL] | IC50 [4] [µg/mL] | IC50 ± SD (mAb3C9 [1]) [µg/mL] | LOD (IC10) (mAb3C9 [1]) [µg/mL] | CR (%) (mAb4D11) | IC50 (mAb4D11) [µg/mL] | IC50 ± SD (mAb3C9 [2]) [µg/mL] | LOD (IC10) (mAb3C9 [2]) [µg/mL] |
| --- | --- | --- | --- | --- | --- | --- | --- | --- | --- | --- | --- | --- | --- | --- | --- | --- | --- |
| COP(=S)(OC)Oc1cc(Cl)c(Cl)cc1Cl [Fenchlorphos] | 10.1 | 0.0093 | 0.0501 ± 0.0021 (≈ 0.156 µM) | 26.4 | 0.055 (≈ 0.171 µM) | 13.3 | 10.5 | 0.0074 | 0.0443 ± 0.0022 (≈ 0.138 µM) |  |  |  |  |  |  |  |  |
| COP(=S)(OC)SCN1C(=O)c2ccccc2C1=O [Phosmet] | 332.9 | 0.0003 | 0.0015 ± 0.0001 (≈ 0.00473 µM) | < 0.3 | > 5 |  | 323.6 | 0.0003 | 0.0014 ± 0.0001 (≈ 0.00441 µM) | 0.1597 (≈ 0.503 µM) |  |  |  |  |  |  |  |
| COP(=S)(OC)Oc1cc(Cl)c(Br)cc1Cl [Bromophos-methyl] | 6.2 | 0.0194 | 0.0822 ± 0.0024 (≈ 0.225 µM) | 11.6 | 0.1246 (≈ 0.34 µM) | 31.4 | 6.2 | 0.0195 | 0.0755 ± 0.0041 (≈ 0.206 µM) |  |  |  |  |  |  |  |  |
| CCOP(=S)(OCC)Oc1cc(C)nc(C(C)C)n1 [Diazinon] | 0.2 | 0.4123 | 2.0648 ± 0.0417 (≈ 6.78 µM) | 5.0 | 0.2883 (≈ 0.947 µM) | 73.2 | 0.3 | 0.3917 | 1.8124 ± 0.0461 (≈ 5.95 µM) |  |  |  |  |  |  |  |  |
| CCOP(=O)(OCC)Oc1ccc([N+](=O)[O-])cc1 [Paraoxon-ethyl] |  |  |  |  |  |  |  |  |  |  | 0.1622 (≈ 0.589 µM) |  |  |  |  |  |  |
| COP(=O)(OC)O/C(=C\Cl)c1cc(Cl)c(Cl)cc1Cl [Tetrachlorvinphos] | 8.5 | 0.0112 | 0.0597 ± 0.0033 (≈ 0.163 µM) | 0.6 | 2.4313 (≈ 6.64 µM) | 536.3 | 8.6 | 0.0089 | 0.0544 ± 0.0021 (≈ 0.149 µM) |  |  |  |  |  |  |  |  |
| COP(=S)(OC)Oc1ccc([N+](=O)[O-])cc1Cl [Isochlorthion] |  |  |  |  |  |  |  |  |  |  | 0.5766 (≈ 1.94 µM) |  |  |  |  |  |  |
| CNC(=O)/C=C(\C)OP(=O)(OC)OC [Monocrotophos] | 2.5 | 0.0616 | 0.2014 ± 0.0043 (≈ 0.902 µM) | 0.5 | 2.9145 (≈ 13.1 µM) | 594.3 | 2.6 | 0.0432 | 0.1791 ± 0.0086 (≈ 0.803 µM) |  |  |  |  |  |  |  |  |
| CCN(CC)c1nc(C)cc(OP(=S)(OC)OC)n1 [Pirimiphos-methyl] | 6.0 | 0.0222 | 0.0837 ± 0.0038 (≈ 0.274 µM) | 23.4 | 0.0621 (≈ 0.203 µM) | 9.1 | 6.0 | 0.0156 | 0.0774 ± 0.0033 (≈ 0.253 µM) |  |  |  |  |  |  |  |  |
| CCOP(=S)(OCC)Oc1cnc2ccccc2n1 [Quinalphos] | 0.2 | 0.5318 | 3.2266 ± 0.0592 (≈ 10.8 µM) | 7.9 | 0.1842 (≈ 0.617 µM) | 32.5 | 0.2 | 0.5123 | 2.8243 ± 0.0952 (≈ 9.47 µM) |  |  |  |  |  |  |  |  |
| COc1nn(CSP(=S)(OC)OC)c(=O)s1 [Methidathion] | 157.6 | 0.0006 | 0.0032 ± 0.0002 (≈ 0.0106 µM) | < 0.3 | > 5 |  | 162.9 | 0.0006 | 0.0029 ± 0.0001 (≈ 0.00959 µM) | 0.1917 (≈ 0.634 µM) |  |  |  |  |  |  |  |
| COP(=O)(OC)Oc1ccc([N+](=O)[O-])cc1 [Paraoxon-methyl] | 1.7 | 0.0632 | 0.2949 ± 0.0093 (≈ 1.19 µM) | 0.5 | 2.6433 (≈ 10.7 µM) | 512.5 | 2.0 | 0.0524 | 0.231 ± 0.0121 (≈ 0.935 µM) |  | 0.1187 (≈ 0.48 µM) |  |  |  |  |  |  |
| COP(=S)(OC)Oc1ccc(S(=O)(=O)N(C)C)cc1 [Famphur] | 339.6 | 0.0004 | 0.0015 ± 0.0001 (≈ 0.00461 µM) | 4.2 | 0.3464 (≈ 1.06 µM) | 80.3 | 347.8 | 0.0003 | 0.0013 ± 0.0001 (≈ 0.004 µM) |  | 58.2157 (≈ 179 µM) |  |  |  |  |  |  |
| CCOP(=S)(OCC)Oc1ccc([N+](=O)[O-])cc1 [Parathion] | 0.2 | 0.4392 | 2.3284 ± 0.0514 (≈ 7.99 µM) | 8.9 | 0.1636 (≈ 0.562 µM) | 17.5 | 0.2 | 0.4663 | 2.4125 ± 0.061 (≈ 8.28 µM) | > 1 | 0.0113 (≈ 0.0388 µM) |  |  |  |  |  |  |
| COP(=S)(OC)Oc1ccc(C#N)cc1 [Cyanophos] | 146.2 | 0.0007 | 0.0035 ± 0.0001 (≈ 0.0144 µM) | 82.5 | 0.0176 (≈ 0.0724 µM) | 2.3 | 152.8 | 0.0006 | 0.0031 ± 0.0002 (≈ 0.0127 µM) |  | 0.0203 (≈ 0.0835 µM) |  |  |  |  |  |  |
| COP(=S)(OC)SCn1nnc2ccccc2c1=O [Azinphos-methyl] | 290.8 | 0.0004 | 0.0017 ± 0.0001 (≈ 0.00536 µM) | < 0.3 | > 5 |  | 306.6 | 0.0004 | 0.0015 ± 0.0001 (≈ 0.00473 µM) |  | > 100 |  |  |  |  |  |  |
| CCOP(=S)(OCC)SCn1nnc2ccccc2c1=O [Azinphos-ethyl] | 4.7 | 0.0264 | 0.1074 ± 0.0032 (≈ 0.311 µM) | < 0.3 | > 5 |  | 4.9 | 0.0216 | 0.0953 ± 0.0042 (≈ 0.276 µM) |  |  |  |  |  |  |  |  |
| CNC(=O)CSP(=S)(OC)OC [Dimethoate] | 2.7 |  |  |  |  |  | 2.7 |  |  |  |  | 0.1893 ± 0.0081 (≈ 0.826 µM) | 0.0284 | < 0.3 | > 5 | 0.1703 ± 0.0073 (≈ 0.743 µM) | 0.0184 |
| COP(=O)(OC)OC=C(Cl)Cl [Dichlorvos] | 3.5 | 0.0312 | 0.1454 ± 0.0038 (≈ 0.658 µM) | 0.8 | 1.8279 (≈ 8.27 µM) | 437.2 | 3.5 | 0.024 | 0.1321 ± 0.0061 (≈ 0.598 µM) |  | > 100 |  |  |  |  |  |  |
| CCOP(=S)(OCC)O/N=C(\C#N)c1ccccc1 [Phoxim] | 0.2 | 0.4336 | 2.5779 ± 0.0721 (≈ 8.64 µM) | 5.9 | 0.2441 (≈ 0.818 µM) | 49.5 | 0.2 | 0.4354 | 2.6524 ± 0.112 (≈ 8.89 µM) |  | > 100 |  |  |  |  |  |  |
| CCOP(=S)(Oc1ccc([N+](=O)[O-])cc1)c1ccccc1 (centres unmarked) [EPN] |  |  |  |  |  |  |  |  |  |  | 0.0183 (≈ 0.0566 µM) |  |  |  |  |  |  |
